Experimental data: US10138292B2, “Cell culture medium” (BIOLAMINA AB, priority 2010, dated 2018)

Assays:
hES cells = test: Cell survival assay, 24 hours (Example 2); format: cell-based, human
Procedure: The survival assay was performed as described for the cell adhesion assay above, except that the cells were left in the cell incubator for 24 hours. For inhibition of survival assay, the cells were kept in a medium with function blocking antibodies at the concentrations recommended by the manufacturer or pathway inhibitors at concentrations indicated in the text for 30 minutes, and then plated on the coated dishes. All the experiments were performed in quadruplicate.
Pluripotent hES cells express α1, α5, β1, β2 and γ1 laminin chains. To compare the adhesion and clonal survival of hES cells plated from single cell suspension to different coating substrata, hES cells growing as monolayers on LN-511 or as clusters on a feeder layer were trypsinized into single cell suspension in O3 medium and plated on cell culture dishes coated with Matrigel, LN-111, LN-511, LN-521 or a mixture of LN-511 and LN-521, in the absence or presence of a ROCK inhibitor (Y-27632) and analyzed after 24 hours.

[1] = tested on: Oct4, Nanog, SSEA4, PAX6, SOX17, SOX7; test: Expression of pluripotency and differentiation markers (immunofluorescence, RT-PCR, FACS); format: cell-based, human; conditions: similar to cells on Matrigel passed as small clumps
Procedure: For immunofluorescence studies, ES cells were cultured and fixed in 8-well slide chambers (BD Biosciences) or 96-well plate wells by 4% paraformaldehyde, permeabilized by 0.1% Triton-X and blocked by 10% bovine fetal serum (GIBCO Invitrogen Corporation) in phosphate-saline buffer (PBS) containing 0.1% Tween-20 (Sigma-Aldrich, St. Louis, http://www.sigmaaldrich.com) for one hour. Incubation with primary antibody was performed for 1.5 hours at room temperature. Incubation with secondary antibody and 4,6-diamidino-2-phenylindole (DAPI, Molecular Probes) was performed for 40 minutes. Between incubations, the specimens were washed with 0.1% Tween-20 in PBS buffer three to five times. Specimens were preserved in a fluorescence mounting medium (Dako, Glostrup, Denmark, http://www.dako.com), and observed under a fluorescence microscope (Leica, Heerbrugg, Switzerland, http://www.leica.com).
Total RNA was isolated using Absolutely RNA Microprep Kit (Stratagene, La Jolla Calif., www.stratagene.com) according to the manufacturer's instructions. cDNA was synthesized using 0.2 μg of total RNA in 20 μl reaction mixture, containing oligo(dT)12-18 primers and Superscript II reverse transcriptase (GIBCO Invitrogen Corporation), according to the manufacturer's instructions. […] All data was analyzed with 7300 System SDS Software v 1.4. […]

## LN-521: protein formed by joining α5, β2 and γ1 laminin chains; human recombinant, produced in HEK293 cells
hES cells; 10 μM of Y-27632, 40,000 cells per 1 cm^2
  survival of Y-27632 treated cells compared with Matrigel: survived better
hES cells; 24 hours, absence of ROCK inhibitor
  survival compared with LN-511: significantly higher
hES cells; dissociated hES cells
  survival after 24 hours relative to Matrigel: approximately 20 times
hES cells; exogenous bFGF removed from the O3 medium
  survival relative to Matrigel: 20 times
hES cells; medium lacking bFGF, LiCl, GABA, pipecolic acid and TGFβ
  survival 24 hours after plating: survived
hES cells; single cell suspension, O3 medium, absence of ROCK inhibitor
  survival 24 hours after plating: did so as single cells
[1]
  expression of pluripotency markers Oct4, Nanog, and SSEA4: stable expression levels
